What was measured:
Assay in all cases: relative viability (nuclei count vs DMSO), 5 days (fraction); higher = more cells survive
[1] = compound: O=C(C[C@H]1NCCC[C@@H]1O)Cn1cnc2cc(Br)c(Cl)cc2c1=O (racemic) [Halofuginone] + CCNC(=O)c1noc(-c2cc(C(C)C)c(O)cc2O)c1-c1ccc(CN2CCOCC2)cc1 [Luminespib] (partner 0.01 µM)
How it was run: (§1)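 Five library-drug doses in √10 steps were combined with a fixed anchor-drug dose, or a single drug was given alone, by pin tool to lung cancer cell lines in 1536-well plates the day after seeding. Nuclei were stained and counted after 5 days. Relative viability is the nuclei count in treated wells over that in vehicle wells, taken as the median of duplicate plates.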

Cediranib + OSI-027 = compound: COc1cc2c(Oc3ccc4[nH]c(C)cc4c3F)ncnc2cc1OCCCN1CCCC1 [Cediranib] + COc1cccc2cc(-c3nc([C@H]4CC[C@H](C(=O)O)CC4)n4ncnc(N)c34)[nH]c12 [OSI-027] (partner 0.5 µM)
How it was run: as §1

Halofuginone + OSI-027 = compound: O=C(C[C@H]1NCCC[C@@H]1O)Cn1cnc2cc(Br)c(Cl)cc2c1=O (racemic) [Halofuginone] + COc1cccc2cc(-c3nc([C@H]4CC[C@H](C(=O)O)CC4)n4ncnc(N)c34)[nH]c12 [OSI-027] (partner 0.5 µM)
How it was run: as §1

Decitabine + OSI-027 = compound: Nc1ncn([C@H]2C[C@H](O)[C@@H](CO)O2)c(=O)n1 [Decitabine] + COc1cccc2cc(-c3nc([C@H]4CC[C@H](C(=O)O)CC4)n4ncnc(N)c34)[nH]c12 [OSI-027] (partner 0.5 µM)
How it was run: as §1

Row | Cell Line | relative viability ([1]; first compound 0.001 µM) | relative viability ([1]; first compound 0.003162 µM) | relative viability ([1]; first compound 0.01 µM) | relative viability ([1]; first compound 0.03162 µM) | relative viability ([1]; first compound 0.1 µM) | relative viability (Cediranib + OSI-027; first compound 0.04 µM) | relative viability (Cediranib + OSI-027; first compound 0.1265 µM) | relative viability (Cediranib + OSI-027; first compound 0.4 µM) | relative viability (Cediranib + OSI-027; first compound 1.265 µM) | relative viability (Cediranib + OSI-027; first compound 4 µM) | relative viability (Halofuginone + OSI-027; first compound 0.001 µM) | relative viability (Halofuginone + OSI-027; first compound 0.003162 µM) | relative viability (Halofuginone + OSI-027; first compound 0.01 µM) | relative viability (Halofuginone + OSI-027; first compound 0.03162 µM) | relative viability (Halofuginone + OSI-027; first compound 0.1 µM) | relative viability (Decitabine + OSI-027; first compound 0.04 µM) | relative viability (Decitabine + OSI-027; first compound 0.1265 µM) | relative viability (Decitabine + OSI-027; first compound 0.4 µM) | relative viability (Decitabine + OSI-027; first compound 1.265 µM) | relative viability (Decitabine + OSI-027; first compound 4 µM)
1 | NCI-H1395 | 0.826 | 0.655 | 0.626 | 0.656 | 0.642 | 0.628 | 0.751 | 0.62 | 0.615 | 0.608 | 0.665 | 0.656 | 0.789 | 0.594 | 0.683 | 0.483 | 0.529 | 0.516 | 0.455 | 0.492
2 | NCI-H1437 | 1.12 | 1.1 | 1.1 | 1.04 | 0.879 | 0.841 | 0.992 | 0.796 | 0.851 | 1.02 | 0.905 | 0.933 | 0.871 | 0.847 | 0.717 | 0.717 | 0.732 | 0.495 | 0.382 | 0.3
3 | NCI-H1563 | 0.487 | 0.493 | 0.547 | 0.534 | 0.467 | 0.799 | 1.03 | 0.767 | 0.744 | 0.796 | 0.859 | 0.735 | 0.837 | 0.612 | 0.527 | 0.791 | 0.811 | 0.767 | 0.774 | 0.76
4 | NCI-H1623 | 0.622 | 0.465 | 0.461 | 0.622 | 0.485 | 0.426 | 0.442 | 0.477 | 0.423 | 0.392 | 0.536 | 0.455 | 0.436 | 0.517 | 0.423 | 0.359 | 0.438 | 0.427 | 0.4 | 0.363
5 | NCI-H1650 | 0.188 | 0.217 | 0.193 | 0.204 | 0.235 | 0.781 | 0.596 | 0.589 | 0.577 | 0.436 | 0.653 | 0.634 | 0.639 | 0.774 | 0.141 | 0.422 | 0.495 | 0.321 | 0.285 | 0.341
6 | NCI-H1651 | 0.7 | 0.797 | 0.802 | 0.65 | 0.427 | 0.59 | 0.652 | 0.721 | 0.606 | 0.778 | 0.825 | 0.701 | 0.655 | 0.665 | 0.382 | 0.586 | 0.842 | 0.777 | 0.573 | 0.478
7 | NCI-H1666 | 1.01 | 0.968 | 0.996 | 0.958 | 0.783 | 0.9 | 0.809 | 0.891 | 0.802 | 0.805 | 1.01 | 0.869 | 0.766 | 0.955 | 0.852 | 0.785 | 0.82 | 0.742 | 0.595 | 0.676
8 | NCI-H1734 | 0.198 | 0.199 | 0.224 | 0.233 | 0.187 | 0.517 | 0.705 | 0.583 | 0.515 | 0.64 | 0.579 | 0.587 | 0.543 | 0.554 | 0.501 | 0.506 | 0.554 | 0.578 | 0.368 | 0.266
